Reference: patent US20080103205A1, “Pesticidal compositions and methods of use” (priority 2006, published 2008)
Like-named read-outs stand apart in the source and are kept apart here.

How the values were obtained:
Format in all cases: in vivo
Drosophila melanogaster = test: Toxicity against adult Drosophila melanogaster, sugar solution feeding; details: 72 hr
Procedure: Toxicity tests were conducted using mixed sex adults of D. melanogaster maintained on artificial diet in the department of entomology, Virginia Tech. Test concentrations of 6.25, 12.5, 25, 50 or 100 ppm were prepared in 0.2% dimethyl sulfoxide (DMSO) for DIDS, 9-AC, NPPB, and IAA-94. The above final concentrations were obtained after mixing them in 10 ml of 10% sugar solution. Similar preparations with 0.2% DMSO alone served as controls. One end of a cotton wick was dipped in 0.5 ml of sugar solution and placed on the glass vial containing 10 adult flies of mixed sex. Each concentration of test chemical had 5 replications. Mortality counts of flies were taken 24, 48, and 72 hrs after treatment. Insects without movement upon probing were considered dead. LC50 values and confidence intervals for each chemical were estimated using POLO PLUS software program. The data provided in Tables 3-A and 3-B below confirm that AT blockers are toxic to insects in acute exposures.

Meloidogyne incognita = test: Toxicity test, J2 juveniles of Meloidogyne incognita, 96 well micro plate; details: for mortality at 50 ppm / mortality at 100 ppm / mortality at 200 ppm / mortality at 300 ppm / mortality at 400 ppm: Meloidogyne incognita
Procedure: Methodology: Toxicity tests were conducted using J2 juveniles of Meloidogyne incognita adult Caenorhabditis elegans collected from nematode-infested tomato plant roots and culture Petri plates, respectively. Test concentrations of 50, 100, 200, 300, or 400 ppm were prepared in 0.2% dimethylsulfoxide (DMSO) in tap water. Aliquots (300 microliters (ul)) were applied to a 96 well micro plate and a 20 ul aqueous solution containing nematodes was added. The number of nematodes in 20 ul ranged from 17 to 30. Micro plates were sealed with Parafilm™ and incubated at room temperature. Similar tests conducted with 0.2% DMSO in tap water served as controls. Nematode mortality was checked at 24, 48, 72, 120, and 168 hr after incubation. Nematodes that were motionless for 30 sec when observed under a stereomicroscope were considered paralyzed and included in mortality counts. Each concentration was replicated five times and mean percent mortality was calculated after correcting for control mortality using Abbott's formula.
Data Analysis: Mortality data were analyzed using PROC PROBIT (SAS) program and LC50 values were estimated.

M. incognita = test: Initial petri dish toxicity assay, M. incognita; details: Meloidogyne incognita; 100 ppm for 24 hr
Text: The stilbene nucleus is a simple chemical scaffold, and excellent gains in potency can be envisioned from appropriate chemical modification. In addition, other compounds having a similar mode of action have been described, including NPPB, IAA-94, and 9-AC (FIGS. 1-3). This Example 1 describes further toxicity studies with these compounds.

[1] = 24 hr, read-out: Corrected Mortality (%)
[2] = 48 hr, read-out: Corrected Mortality (%)
[3] = 72 hr, read-out: Corrected Mortality (%)
[4] = 120 hr, read-out: Corrected Mortality (%)
[5] = 120 hr, read-out: Mortality (%)
[6] = 168 hr, read-out: Corrected Mortality (%)
[7] = 168 hr, read-out: Mortality (%)

For `O=S(=O)(O)c1cc(N=C=S)ccc1/C=C/c1ccc(N=C=S)cc1S(=O)(=O)O` [DIDS, trans-4,4′-diisothiocyanatostilbene-2,2′-disulfonic acid, reference compound], the “LC50 (ppm)” value (Drosophila melanogaster) was 72.82 ppm, the “LC50 (ppm)” value (Meloidogyne incognita; Day 2) was 356 ppm and the “LC50 (ppm)” value (Meloidogyne incognita; Day 3) was 36 ppm. For the same molecule, the “LC50 (ppm)” value (Meloidogyne incognita; Day 5) was 20 ppm, the “LC50 (ppm)” value (Meloidogyne incognita; Day 7) was 4 ppm and the mortality at 50 ppm (Meloidogyne incognita; [1]) was 9%. It also gave a mortality at 50 ppm (Meloidogyne incognita; 24 hr, read-out: Mortality (%)) of 11%, a mortality at 50 ppm (Meloidogyne incognita; [2]) of 36% and a mortality at 50 ppm (Meloidogyne incognita; 48 hr, read-out: Mortality (%)) of 39%. It also gave a mortality at 50 ppm (Meloidogyne incognita; [3]) of 56%, a mortality at 50 ppm (Meloidogyne incognita; 72 hr, read-out: Mortality (%)) of 59% and a mortality at 50 ppm (Meloidogyne incognita; [4]) of 73%. It also gave a mortality at 50 ppm (Meloidogyne incognita; [5]) of 75%, a mortality at 50 ppm (Meloidogyne incognita; [6]) of 98% and a mortality at 50 ppm (Meloidogyne incognita; [7]) of 98%. For the same molecule, the mortality at 100 ppm (Meloidogyne incognita; [1]) was 16%, the mortality at 100 ppm (Meloidogyne incognita; 24 hr, read-out: Mortality (%)) was 18% and the mortality at 100 ppm (Meloidogyne incognita; [2]) was 39%. For the same molecule, the mortality at 100 ppm (Meloidogyne incognita; 48 hr, read-out: Mortality (%)) was 41%, the mortality at 100 ppm (Meloidogyne incognita; [3]) was 61% and the mortality at 100 ppm (Meloidogyne incognita; 72 hr, read-out: Mortality (%)) was 64%. The mortality at 100 ppm (Meloidogyne incognita; [4]) was 84%, the mortality at 100 ppm (Meloidogyne incognita; [5]) was 85% and the mortality at 100 ppm (Meloidogyne incognita; [6]) was 99%. For the same molecule, the mortality at 100 ppm (Meloidogyne incognita; [7]) was 99%, the mortality at 200 ppm (Meloidogyne incognita; [1]) was 19% and the mortality at 200 ppm (Meloidogyne incognita; 24 hr, read-out: Mortality (%)) was 21%. For the same molecule, the mortality at 200 ppm (Meloidogyne incognita; [2]) was 43%, the mortality at 200 ppm (Meloidogyne incognita; 48 hr, read-out: Mortality (%)) was 45% and the mortality at 200 ppm (Meloidogyne incognita; [3]) was 67%. For the same molecule, the mortality at 200 ppm (Meloidogyne incognita; 72 hr, read-out: Mortality (%)) was 69%, the mortality at 200 ppm (Meloidogyne incognita; [4]) was 90% and the mortality at 200 ppm (Meloidogyne incognita; [5]) was 91%. For the same molecule, the mortality at 200 ppm (Meloidogyne incognita; [6]) was 100%, the mortality at 200 ppm (Meloidogyne incognita; [7]) was 100% and the mortality at 300 ppm (Meloidogyne incognita; [1]) was 20%. The mortality at 300 ppm (Meloidogyne incognita; 24 hr, read-out: Mortality (%)) was 22%, the mortality at 300 ppm (Meloidogyne incognita; [2]) was 46% and the mortality at 300 ppm (Meloidogyne incognita; 48 hr, read-out: Mortality (%)) was 48%. The mortality at 300 ppm (Meloidogyne incognita; [3]) was 77%, the mortality at 300 ppm (Meloidogyne incognita; 72 hr, read-out: Mortality (%)) was 79% and the mortality at 300 ppm (Meloidogyne incognita; [4]) was 96%. It also gave a mortality at 300 ppm (Meloidogyne incognita; [5]) of 96%, a mortality at 300 ppm (Meloidogyne incognita; [6]) of 100% and a mortality at 300 ppm (Meloidogyne incognita; [7]) of 100%. It also gave a mortality at 400 ppm (Meloidogyne incognita; [1]) of 22%, a mortality at 400 ppm (Meloidogyne incognita; 24 hr, read-out: Mortality (%)) of 24% and a mortality at 400 ppm (Meloidogyne incognita; [2]) of 55%. It also gave a mortality at 400 ppm (Meloidogyne incognita; 48 hr, read-out: Mortality (%)) of 57%, a mortality at 400 ppm (Meloidogyne incognita; [3]) of 78% and a mortality at 400 ppm (Meloidogyne incognita; 72 hr, read-out: Mortality (%)) of 89%. The mortality at 400 ppm (Meloidogyne incognita; [4]) was 100%, the mortality at 400 ppm (Meloidogyne incognita; [5]) was 100% and the mortality at 400 ppm (Meloidogyne incognita; [6]) was 100%. The mortality at 400 ppm (Meloidogyne incognita; [7]) was 100% and the mortality at 100 ppm (M. incognita) was 20%.
